Laboratory results taken from US11154529B2, “Phosphaplatin liquid formulations” (Phosplatin Therapeutics Inc., priority 2016, dated 2021).

Assay: Ready-to-use formulation stability at 25° C./60% RH, 5 mg/mL (R,R)-pyrodach-2 in 10 mM Bicarbonate Buffer at pH 8.6, 10 mL vials
Assay type: physicochemical

O=P1(O)OP(=O)(O)[O][Pt]2([NH][C@@H]3CCCC[C@H]3[NH]2)[O]1 (stereo partly drawn) [(R,R)-pyrodach-2, (R,R)-trans-1,2-cyclohexanediamine-(dihydrogenpyrophosphato)platinum(II)]
Potency (Assay) (1 month): 98.9%
Purity (% Area) (1 month): 97.44%
Unknown Impurities RRT~0.29 (1 month): 0.16%
Unknown Impurities RRT~0.42 (1 month): 0.21%
Unknown Impurities RRT~0.49 (1 month): 0.75%
Unknown Impurities RRT~0.59 (1 month): 0.15%
Unknown Impurities RRT~0.73 (1 month): 1.03%
Unknown Impurities RRT~1.82 (1 month): ND (ND = Not Detected, or <0.05%)
Unknown Impurities RRT~2.85 (1 month): ND (ND = Not Detected, or <0.05%)
Unknown Impurities RRT~3.00 (1 month): ND (ND = Not Detected, or <0.05%)
Unknown Impurities RRT~3.15 (1 month): ND (ND = Not Detected, or <0.05%)
Unknown Impurities RRT~3.30 (1 month): ND (ND = Not Detected, or <0.05%)
Unknown Impurities RRT~3.45 (1 month): ND (ND = Not Detected, or <0.05%)
Unknown Impurities RRT~3.74 (1 month): 0.08%
Unknown Impurities RRT~4.27 (1 month): ND (ND = Not Detected, or <0.05%)
Unknown Impurities RRT~4.99 (1 month): ND (ND = Not Detected, or <0.05%)
pH (1 month): 8.68
Potency (Assay) (1 week): 101.7%
Purity (% Area) (1 week): 97.74%
Unknown Impurities RRT~0.29 (1 week): 0.11%
Unknown Impurities RRT~0.42 (1 week): 0.05%
Unknown Impurities RRT~0.49 (1 week): 0.78%
Unknown Impurities RRT~0.59 (1 week): 0.06%
Unknown Impurities RRT~0.73 (1 week): 1.12%
Unknown Impurities RRT~1.82 (1 week): ND (ND = Not Detected, or <0.05%)
Unknown Impurities RRT~2.85 (1 week): ND (ND = Not Detected, or <0.05%)
Unknown Impurities RRT~3.00 (1 week): ND (ND = Not Detected, or <0.05%)
Unknown Impurities RRT~3.15 (1 week): ND (ND = Not Detected, or <0.05%)
Unknown Impurities RRT~3.30 (1 week): ND (ND = Not Detected, or <0.05%)
Unknown Impurities RRT~3.45 (1 week): ND (ND = Not Detected, or <0.05%)
Unknown Impurities RRT~3.74 (1 week): ND (ND = Not Detected, or <0.05%)
Unknown Impurities RRT~4.27 (1 week): ND (ND = Not Detected, or <0.05%)
Unknown Impurities RRT~4.99 (1 week): ND (ND = Not Detected, or <0.05%)
pH (1 week): 8.57
Potency (Assay) (2 month): 100.4%
Purity (% Area) (2 month): 96.45%
Unknown Impurities RRT~0.29 (2 month): 0.19%
Unknown Impurities RRT~0.42 (2 month): 0.56%
Unknown Impurities RRT~0.49 (2 month): 0.79%
Unknown Impurities RRT~0.59 (2 month): 0.26%
Unknown Impurities RRT~0.73 (2 month): 0.97%
Unknown Impurities RRT~1.82 (2 month): ND (ND = Not Detected, or <0.05%)
Unknown Impurities RRT~2.85 (2 month): 0.12%
Unknown Impurities RRT~3.00 (2 month): ND (ND = Not Detected, or <0.05%)
Unknown Impurities RRT~3.15 (2 month): ND (ND = Not Detected, or <0.05%)
Unknown Impurities RRT~3.30 (2 month): ND (ND = Not Detected, or <0.05%)
Unknown Impurities RRT~3.45 (2 month): 0.05%
Unknown Impurities RRT~3.74 (2 month): 0.31%
Unknown Impurities RRT~4.27 (2 month): ND (ND = Not Detected, or <0.05%)
Unknown Impurities RRT~4.99 (2 month): 0.07%
pH (2 month): 8.73
Potency (Assay) (2 week): 99.9%
Purity (% Area) (2 week): 97.77%
Unknown Impurities RRT~0.29 (2 week): 0.12%
Unknown Impurities RRT~0.42 (2 week): 0.10%
Unknown Impurities RRT~0.49 (2 week): 0.77%
Unknown Impurities RRT~0.59 (2 week): ND (ND = Not Detected, or <0.05%)
Unknown Impurities RRT~0.73 (2 week): 1.17%
Unknown Impurities RRT~1.82 (2 week): ND (ND = Not Detected, or <0.05%)
Unknown Impurities RRT~2.85 (2 week): ND (ND = Not Detected, or <0.05%)
Unknown Impurities RRT~3.00 (2 week): ND (ND = Not Detected, or <0.05%)
Unknown Impurities RRT~3.15 (2 week): ND (ND = Not Detected, or <0.05%)
Unknown Impurities RRT~3.30 (2 week): ND (ND = Not Detected, or <0.05%)
Unknown Impurities RRT~3.45 (2 week): ND (ND = Not Detected, or <0.05%)
Unknown Impurities RRT~3.74 (2 week): ND (ND = Not Detected, or <0.05%)
Unknown Impurities RRT~4.27 (2 week): ND (ND = Not Detected, or <0.05%)
Unknown Impurities RRT~4.99 (2 week): ND (ND = Not Detected, or <0.05%)
pH (2 week): 8.64
Potency (Assay) (3 month): 101.6%
Purity (% Area) (3 month): 96.08%
Unknown Impurities RRT~0.29 (3 month): 0.27%
Unknown Impurities RRT~0.42 (3 month): 0.76%
Unknown Impurities RRT~0.49 (3 month): 0.78%
Unknown Impurities RRT~0.59 (3 month): 0.25%
Unknown Impurities RRT~0.73 (3 month): 0.92%
Unknown Impurities RRT~1.82 (3 month): ND (ND = Not Detected, or <0.05%)
Unknown Impurities RRT~2.85 (3 month): 0.17%
Unknown Impurities RRT~3.00 (3 month): ND (ND = Not Detected, or <0.05%)
Unknown Impurities RRT~3.15 (3 month): ND (ND = Not Detected, or <0.05%)
Unknown Impurities RRT~3.30 (3 month): ND (ND = Not Detected, or <0.05%)
Unknown Impurities RRT~3.45 (3 month): ND (ND = Not Detected, or <0.05%)
Unknown Impurities RRT~3.74 (3 month): 0.40%
Unknown Impurities RRT~4.27 (3 month): 0.06%
Unknown Impurities RRT~4.99 (3 month): 0.14%
pH (3 month): 9.01
Potency (Assay) (3 week): 100.3%
Purity (% Area) (3 week): 97.33%
Unknown Impurities RRT~0.29 (3 week): 0.16%
Unknown Impurities RRT~0.42 (3 week): 0.15%
Unknown Impurities RRT~0.49 (3 week): 0.76%
Unknown Impurities RRT~0.59 (3 week): 0.12%
Unknown Impurities RRT~0.73 (3 week): 1.26%
Unknown Impurities RRT~1.82 (3 week): ND (ND = Not Detected, or <0.05%)
Unknown Impurities RRT~2.85 (3 week): ND (ND = Not Detected, or <0.05%)
Unknown Impurities RRT~3.00 (3 week): ND (ND = Not Detected, or <0.05%)
Unknown Impurities RRT~3.15 (3 week): ND (ND = Not Detected, or <0.05%)
Unknown Impurities RRT~3.30 (3 week): ND (ND = Not Detected, or <0.05%)
Unknown Impurities RRT~3.45 (3 week): ND (ND = Not Detected, or <0.05%)
Unknown Impurities RRT~3.74 (3 week): 0.06%
Unknown Impurities RRT~4.27 (3 week): ND (ND = Not Detected, or <0.05%)
Unknown Impurities RRT~4.99 (3 week): ND (ND = Not Detected, or <0.05%)
pH (3 week): 8.67
Potency (Assay) (4 month): 103.0%
Purity (% Area) (4 month): 95.98%
Unknown Impurities RRT~0.29 (4 month): 0.16%
Unknown Impurities RRT~0.42 (4 month): 0.96%
Unknown Impurities RRT~0.49 (4 month): 0.94%
Unknown Impurities RRT~0.59 (4 month): 0.17%
Unknown Impurities RRT~0.73 (4 month): 0.73%
Unknown Impurities RRT~1.82 (4 month): ND (ND = Not Detected, or <0.05%)
Unknown Impurities RRT~2.85 (4 month): 0.17%
Unknown Impurities RRT~3.00 (4 month): ND (ND = Not Detected, or <0.05%)
Unknown Impurities RRT~3.15 (4 month): ND (ND = Not Detected, or <0.05%)
Unknown Impurities RRT~3.30 (4 month): ND (ND = Not Detected, or <0.05%)
Unknown Impurities RRT~3.45 (4 month): ND (ND = Not Detected, or <0.05%)
Unknown Impurities RRT~3.74 (4 month): 0.58%
Unknown Impurities RRT~4.27 (4 month): 0.06%
Unknown Impurities RRT~4.99 (4 month): 0.20%
pH (4 month): 8.90
Potency (Assay) (6 month): 99.2%
Purity (% Area) (6 month): 95.03%
Unknown Impurities RRT~0.29 (6 month): 0.22%
Unknown Impurities RRT~0.42 (6 month): 1.29%
Unknown Impurities RRT~0.49 (6 month): 0.80%
Unknown Impurities RRT~0.59 (6 month): 0.32%
Unknown Impurities RRT~0.73 (6 month): 0.82%
Unknown Impurities RRT~1.82 (6 month): ND (ND = Not Detected, or <0.05%)
Unknown Impurities RRT~2.85 (6 month): 0.15%
Unknown Impurities RRT~3.00 (6 month): 0.07%
Unknown Impurities RRT~3.15 (6 month): ND (ND = Not Detected, or <0.05%)
Unknown Impurities RRT~3.30 (6 month): 0.05%
Unknown Impurities RRT~3.45 (6 month): ND (ND = Not Detected, or <0.05%)
Unknown Impurities RRT~3.74 (6 month): 0.69%
Unknown Impurities RRT~4.27 (6 month): 0.08%
Unknown Impurities RRT~4.99 (6 month): 0.36%
pH (6 month): 8.93
Potency (Assay) (9 month): 100.3%
Purity (% Area) (9 month): 93.82%
Unknown Impurities RRT~0.29 (9 month): 0.15%
Unknown Impurities RRT~0.42 (9 month): 1.88%
Unknown Impurities RRT~0.49 (9 month): 0.84%
Unknown Impurities RRT~0.59 (9 month): 0.32%
Unknown Impurities RRT~0.73 (9 month): 0.43%
Unknown Impurities RRT~1.82 (9 month): 0.05%
Unknown Impurities RRT~2.85 (9 month): 0.32%
Unknown Impurities RRT~3.00 (9 month): ND (ND = Not Detected, or <0.05%)
Unknown Impurities RRT~3.15 (9 month): 0.07%
Unknown Impurities RRT~3.30 (9 month): 0.10%
Unknown Impurities RRT~3.45 (9 month): 0.06%
Unknown Impurities RRT~3.74 (9 month): 0.88%
Unknown Impurities RRT~4.27 (9 month): 0.13%
Unknown Impurities RRT~4.99 (9 month): 0.66%
pH (9 month): 9.08
Potency (Assay) (12 month): 98.4%
Purity (% Area) (12 month): 92.23%
Unknown Impurities RRT~0.29 (12 month): 0.14%
Unknown Impurities RRT~0.42 (12 month): 2.20%
Unknown Impurities RRT~0.49 (12 month): 0.86%
Unknown Impurities RRT~0.59 (12 month): 0.32%
Unknown Impurities RRT~0.73 (12 month): 0.97%
Unknown Impurities RRT~1.82 (12 month): 0.06%
Unknown Impurities RRT~2.85 (12 month): 0.37%
Unknown Impurities RRT~3.00 (12 month): 0.06%
Unknown Impurities RRT~3.15 (12 month): 0.06%
Unknown Impurities RRT~3.30 (12 month): 0.12%
Unknown Impurities RRT~3.45 (12 month): 0.05%
Unknown Impurities RRT~3.74 (12 month): 1.07%
Unknown Impurities RRT~4.27 (12 month): 0.15%
Unknown Impurities RRT~4.99 (12 month): 1.02%
pH (12 month): 9.07
Potency (Assay) (Initial): 100.3%
Purity (% Area) (Initial): 98.04%
Unknown Impurities RRT~0.29 (Initial): 0.11%
Unknown Impurities RRT~0.42 (Initial): ND (ND = Not Detected, or <0.05%)
Unknown Impurities RRT~0.49 (Initial): 0.62%
Unknown Impurities RRT~0.59 (Initial): ND (ND = Not Detected, or <0.05%)
Unknown Impurities RRT~0.73 (Initial): 1.05%
Unknown Impurities RRT~1.82 (Initial): ND (ND = Not Detected, or <0.05%)
Unknown Impurities RRT~2.85 (Initial): ND (ND = Not Detected, or <0.05%)
Unknown Impurities RRT~3.00 (Initial): ND (ND = Not Detected, or <0.05%)
Unknown Impurities RRT~3.15 (Initial): ND (ND = Not Detected, or <0.05%)
Unknown Impurities RRT~3.30 (Initial): ND (ND = Not Detected, or <0.05%)
Unknown Impurities RRT~3.45 (Initial): ND (ND = Not Detected, or <0.05%)
Unknown Impurities RRT~3.74 (Initial): ND (ND = Not Detected, or <0.05%)
Unknown Impurities RRT~4.27 (Initial): ND (ND = Not Detected, or <0.05%)
Unknown Impurities RRT~4.99 (Initial): ND (ND = Not Detected, or <0.05%)
pH (Initial): 8.60
